How the values were obtained:
[1] = biological target: T1, recombinant human 5-HT transporter (Homo sapiens, UniProt P31645); test: Inhibition of [3H]serotonin uptake in HEK-293 cells transfected with the 5-HT uptake transporter; assay type: cell-based
T1 construct: host or cells: HEK-293
Procedure: The ability of (1R,5S)-(+)-1-(naphthalen-2-yl)-3-azabicyclo[3.1.0]hexane for inhibiting transport of norepinephrine (NE) and/or dopamine (DA) and/or serotonin (5-HT) was evaluated using cell lines (such as the HEK 293 cell line) that stably express recombinant human NE, DA, and 5-HT transporters, respectively. Techniques for stably transfecting mammalian cell lines with neurotransmitter transporters and measuring the effects of drugs on amine uptake have been described in the literature (e.g., Eshleman A J, J Pharmacol Exp Ther 289:877-885, 1999) and are well known to those skilled in the art
Monoamine uptake was determined in MDCK, CHO-K1, and HEK-293 cell lines respectively transfected with NE, DA, and 5-HT uptake transporters by MDS Pharma Services (Taipei, Taiwan 112, R. O. C.). The cells were incubated in 5 mM Tris-HCl, and 7.5 mM HEPES buffer, pH 7.1, containing 120 mM NaCl, 5.4 mM KCl, 1.2 mM CaCl2, 1.2 mM MgSO4, 5 mM D-glucose, and 1 mM Ascorbic Acid. The cellular homogenates were incubated with radioligands and various concentrations of drugs for 10 minutes at 25° C. The [^3H]-radioligands incorporated into the cells were determined according to published methods using liquid scintillation counting (Perovic and Müller 1995; Eshleman et al., 1999). […]

[2] = test system: monoamine uptake transporters; test: Microdialysis in rat striatum (extracellular DA, HVA); assay type: in vivo
Procedure: To evaluate the effect of (1R,5S)-(+)-1-(naphthalen-2-yl)-3-azabicyclo[3.1.0]hexane on monoamine uptake transporters in vivo, microdialysis studies were performed in rat brain regions.
Microdialysis studies were conducted using male Wistar rats (250-300 g) bred at the Institute of Pharmacology, the Polish Academy of Sciences, Krakow, Poland. The rats (250-300 g) were housed on a 12 h/12 h light/dark cycle at a constant temperature and humidity, and were provided with food and water ad libitum. The microdialysis procedure has been previously described (Popik et al., 2006). Briefly, the rats were anaesthetized with ketamine (75 mg/kg IM) and xylazine (10 mg/kg IM), placed in a stereotaxic apparatus (David Kopf Instruments, Tujunga, CA, USA) with their skulls exposed. Small holes were drilled in the skull for insertion of the vertical microdialysis probes into the prefrontal cortex and striatum, respectively using the following coordinates: 2.9 mm anterior from the bregma, 0.8 mm lateral from the sagittal suture and −4.5 ventral from the dura surface (prefrontal cortex); 1.8 mm anterior from the bregma, 2.7 mm lateral from the sagittal suture and −7.0 mm ventral from the dura surface (striatum) (Paxinos and Watson, 1998). Microdialysis probes were constructed by inserting two fused silica tubes (30 and 35 mm long, 150 μm o.d.; Polymicro Technologies Inc., Phoenix, AZ, USA) into a microdialysis fiber (220 μm o.d.; AN69, Hospal, Bologna, Italy). The tube assembly was placed in a stainless steel cannula (22 G, 10 mm) forming the shaft of the probe. Portions of the inlet and outlet tubes were individually placed inside polyethylene PE-10 tubing and were glued for protection. The free end of the dialysis fibre was sealed, and 3 mm of the exposed length used for dialysis in prefrontal cortex and 4 mm for striatum. One day after the surgery and probe implantation, the inlet of the dialysis probes was connected to a syringe pump (BAS, IN, USA) which delivered an artificial cerebrospinal fluid (aCSF) composed of [in mM]: NaCl 145, KCl 2.7, MgCl2 1.0, CaCl2 1.2; pH=7.4 at a flow rate of 1.5 μl/min. After a two hour rinsing period to stabilize the extracellular level of neurotransmitters, 3-4 baseline samples were collected in 20 minute sampling periods. Next, (1R,5S)-(+)-1-(naphthalen-2-yl)-3-azabicyclo[3.1.0]hexane (dissolved in 0.9% saline solution) at doses of 10 or 20 mg/kg intraperioneally (i.p.) was administered to the animals at 4 ml/kg and consequent dialysate fractions were collected every 20 min for 3 hrs. At the end of the experiments the rats were sacrificed and their brains were histologically examined to validate the correct probe placement
Dopamine, and serotonin (5-HT) were analysed by HPLC with electrochemical detection. […] The flow rate was 0.5 ml/min, and the applied potential of a 3 mm glassy carbon electrode was +600 mV with a sensitivity of 2 nA/V. Norepinephrine was measured using HPLC system equipped with a P580 pump (Dionex, CA, USA) connected to a BAS injection valve with a 10 μI injection loop and a BDS-Hypersil analytical column (2.0×100 mm, a 3 μm, Thermo Electron Corp., UK). […] NE in the dialysates was detected with a BAS UniJet radial flow detector cell coupled to a LC-4B amperometric detector (BAS, IN, USA). […]

T1 sequence (P31645 whole entry): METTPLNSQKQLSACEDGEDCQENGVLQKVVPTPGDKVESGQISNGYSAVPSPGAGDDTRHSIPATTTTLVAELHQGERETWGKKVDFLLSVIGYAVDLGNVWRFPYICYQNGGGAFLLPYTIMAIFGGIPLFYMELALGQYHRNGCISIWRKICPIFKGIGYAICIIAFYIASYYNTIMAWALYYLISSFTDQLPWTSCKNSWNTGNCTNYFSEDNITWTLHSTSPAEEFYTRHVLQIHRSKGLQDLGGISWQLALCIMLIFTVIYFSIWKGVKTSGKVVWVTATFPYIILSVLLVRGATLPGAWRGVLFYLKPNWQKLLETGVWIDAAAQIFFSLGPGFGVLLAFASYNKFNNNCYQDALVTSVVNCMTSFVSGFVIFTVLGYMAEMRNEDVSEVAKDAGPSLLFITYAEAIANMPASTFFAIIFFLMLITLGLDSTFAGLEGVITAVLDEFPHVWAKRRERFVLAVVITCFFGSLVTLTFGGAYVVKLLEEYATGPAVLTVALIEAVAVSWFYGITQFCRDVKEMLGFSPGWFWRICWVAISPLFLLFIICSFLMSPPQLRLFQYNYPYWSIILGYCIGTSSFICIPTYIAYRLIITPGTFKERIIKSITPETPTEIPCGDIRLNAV

c1ccc2cc([C@]34CNC[C@H]3C4)ccc2c1 [(1R,5S)-(+)-1-(naphthalen-2-yl)-3-azabicyclo[3.1.0]hexane]
IC50 [1]: 83 nM
duration of effect on extracellular DA [2]: over 3 hours
effect on extracellular concentrations of HVA (metabolite of DA) [2]: decreased
time within which extracellular DA was markedly increased [2]: ≤ 40 min
peak increase of extracellular DA ([2]; 10 mg/kg i.p.): over 275 % of baseline
peak increase of extracellular DA ([2]; 20 mg/kg i.p.): > 375 % of baseline

— patent US12042481B2, “Use of (1R,5S)-(+)-1-(naphthalen-2-yl)-3-azabicyclo[3.1.0]hexane in the treatment of conditions affected by monoamine neurotransmitters” (priority 2011, dated 2024)
